Results taken from US20090143478A1, “Milled Submicron Organic Biocides With Narrow Particle Size Distribution, and Uses Thereof” (PhibroWood, LLC, priority 2004, published 2009).
Where two headings read alike, the source gives them in different places.

How the values were obtained:
[1] = format: physicochemical; conditions: 0.4-0.5 mm zirconium silicate
Procedure: (§1) The laboratory-sized vertical mill was provided by C B Mills, model# L-3-J. The mill has a 2 liter capacity and is jacketed for cooling. Unless otherwise specified, ambient water was cycled through the mill cooling jacket during operation. The internal dimensions are 3.9″ diameter by 9.1″ height. The mill uses a standard 3×3″ disk agitator (mild steel) on a stainless steel shaft, and it operates at 2,620 rpm.
(§2) The media used in this Example was 0.4-0.5 mm zirconium silicate beads supplied by C B Mills. All particle size determinations were made with a Sedigraph™ 5100T manufactured by Micromeritics, which uses x-ray detection and bases calculations of size on Stokes' Law.
The total batch weight was about 600 g.

[2] = Wet milling chlorothalonil with 0.5-0.6 mm cerium-doped zirconium oxide beads, particle size by Sedigraph; format: physicochemical
Procedure: as §1, §2
The same mill and conditions were used in this experiment as in experiment 1. However, the grinding media was 0.5-0.6 mm cerium-doped zirconium oxide beads obtained from CB Mills. The density of the cerium doped zirconium oxide is ˜6.0 g/cm^3. […] The total batch weight was about 600 g.

[3] = cited from earlier work
[4] = at 170 C; cited from earlier work
[5] = Milling Time 0 Mins., 0.5-0.6 mm cerium-doped zirconium oxide
[6] = Milling Time 90 Mins., 0.5-0.6 mm cerium-doped zirconium oxide
[7] = Milling Time 240 Mins., 0.5-0.6 mm cerium-doped zirconium oxide
[8] = obtainable in 6 hours, 0.5 mm zirconia milling media
[9] = 0.1 cm zirconia, 10 minutes, US 2004/0063847, 2003/0040569

SMILES: N#Cc1c(Cl)c(Cl)c(Cl)c(C#N)c1Cl [chlorothalonil, 2,4,5,6-tetrachloro-1,3-dicyanobenzene]
- Volume % With Diameter Greater Than 2 μm ([1]; Milling Time 0 Mins.): 95 Volume %
- Volume % With Diameter Greater Than 5 μm ([1]; Milling Time 0 Mins.): 48 Volume %
- Volume % With Diameter Greater Than 10 μm ([1]; Milling Time 0 Mins.): 10 Volume %
- d50 ([1]; Milling Time 0 Mins.): 4.9 μm
- Volume % With Diameter Greater Than 1 μm ([1]; Milling Time 30 Mins.): 68 Volume %
- Volume % With Diameter Greater Than 2 μm ([1]; Milling Time 30 Mins.): 21 Volume %
- Volume % With Diameter Greater Than 5 μm ([1]; Milling Time 30 Mins.): 4 Volume %
- Volume % With Diameter Greater Than 10 μm ([1]; Milling Time 30 Mins.): 0 Volume %
- d50 ([1]; Milling Time 30 Mins.): 1.3 μm
- Volume % With Diameter Greater Than 1 μm ([1]; Milling Time 60 Mins.): 50 Volume %
- Volume % With Diameter Greater Than 2 μm ([1]; Milling Time 60 Mins.): 11 Volume %
- Volume % With Diameter Greater Than 5 μm ([1]; Milling Time 60 Mins.): 2 Volume %
- Volume % With Diameter Greater Than 10 μm ([1]; Milling Time 60 Mins.): 4 Volume %
- d50 ([1]; Milling Time 60 Mins.): 1.0 μm
- Volume % With Diameter Greater Than 1 μm ([1]; Milling Time 90 Mins.): 94 Volume %
- Volume % With Diameter Greater Than 2 μm ([1]; Milling Time 90 Mins.): 22 Volume %
- Volume % With Diameter Greater Than 5 μm ([1]; Milling Time 90 Mins.): 23 Volume %
- Volume % With Diameter Greater Than 10 μm ([1]; Milling Time 90 Mins.): 18 Volume %
- d50 ([1]; Milling Time 90 Mins.): 1.4 μm
- Volume % With Diameter Greater Than 2 μm ([1]; Milling Time 120 Mins.): 4 Volume %
- Volume % With Diameter Greater Than 5 μm ([1]; Milling Time 120 Mins.): 0 Volume %
- Volume % With Diameter Greater Than 10 μm ([1]; Milling Time 120 Mins.): 2 Volume %
- d50 ([1]; Milling Time 120 Mins.): 1.03 μm
- Volume % With Diameter Greater Than 1 μm ([1]; Milling Time 150 Mins.): 58 Volume %
- Volume % With Diameter Greater Than 2 μm ([1]; Milling Time 150 Mins.): 6 Volume %
- Volume % With Diameter Greater Than 5 μm ([1]; Milling Time 150 Mins.): 2 Volume %
- Volume % With Diameter Greater Than 10 μm ([1]; Milling Time 150 Mins.): 0 Volume %
- d50 ([1]; Milling Time 150 Mins.): 1.12 μm
- Volume % With Diameter Greater Than 1 μm ([1]; Milling Time 180 Mins.): 53 Volume %
- Volume % With Diameter Greater Than 2 μm ([1]; Milling Time 180 Mins.): 7 Volume %
- Volume % With Diameter Greater Than 5 μm ([1]; Milling Time 180 Mins.): 2 Volume %
- Volume % With Diameter Greater Than 10 μm ([1]; Milling Time 180 Mins.): 2 Volume %
- d50 ([1]; Milling Time 180 Mins.): 1.07 μm
- Volume % With Diameter Greater Than 1 μm ([1]; Milling Time 270 Mins.): 54 Volume %
- Volume % With Diameter Greater Than 2 μm ([1]; Milling Time 270 Mins.): 8 Volume %
- Volume % With Diameter Greater Than 5 μm ([1]; Milling Time 270 Mins.): 0 Volume %
- Volume % With Diameter Greater Than 10 μm ([1]; Milling Time 270 Mins.): 2 Volume %
- d50 ([1]; Milling Time 270 Mins.): 1.09 μm
- Volume % With Diameter Greater Than 1 μm ([1]; Milling Time 450 Mins.): 56 Volume %
- Volume % With Diameter Greater Than 2 μm ([1]; Milling Time 450 Mins.): 21 Volume %
- Volume % With Diameter Greater Than 5 μm ([1]; Milling Time 450 Mins.): 8 Volume %
- Volume % With Diameter Greater Than 10 μm ([1]; Milling Time 450 Mins.): 12 Volume %
- d50 ([1]; Milling Time 450 Mins.): 1.15 μm
- Volume % With Diameter Greater Than 1 μm [2, 5]: 92 Volume %
- Volume % With Diameter Greater Than 2 μm [2, 5]: 77 Volume %
- Volume % With Diameter Greater Than 5 μm [2, 5]: 30 Volume %
- Volume % With Diameter Greater Than 10 μm [2, 5]: 8 Volume %
- d50 [2, 5]: 3.44 μm
- Volume % With Diameter Greater Than 0.4 μm [2, 6]: 22 Volume %
- Volume % With Diameter Greater Than 1 μm [2, 6]: 3 Volume %
- Volume % With Diameter Greater Than 2 μm [2, 6]: 3 Volume %
- Volume % With Diameter Greater Than 5 μm [2, 6]: 3 Volume %
- Volume % With Diameter Greater Than 10 μm [2, 6]: 3 Volume %
- Volume % With Diameter Greater Than 0.2 μm [2, 7]: 51 Volume %
- Volume % With Diameter Greater Than 0.4 μm [2, 7]: 3 Volume %
- Volume % With Diameter Greater Than 1 μm [2, 7]: 3 Volume %
- Volume % With Diameter Greater Than 2 μm [2, 7]: 2 Volume %
- Volume % With Diameter Greater Than 5 μm [2, 7]: 1 Volume %
- Volume % With Diameter Greater Than 10 μm [2, 7]: 0 Volume %
- d50 [2, 7]: 0.21 μm
- d95 within a factor of the d50 ([2]; milled chlorothalonil of the example): ≤ 2
- d95 ([2]; obtainable in 90 minutes, 0.5 mm zirconia milling media): less than 1 micron
- d50 [2, 8]: less than 0.3 microns
- d95 [2, 8]: less than 0.4 microns
- increase in number of particles per unit of mass over the standard products, factor ([2]; product obtained after 90 minutes of milling (first statement)): more than 30
- increase in number of particles per unit of mass over the standard products, factor ([2]; product obtained after 90 minutes of milling (second statement)): more than 1000
- size below which 90% of the number of particles lie ([3]; 0.1 cm zirconium beads, 3000 rpm, 10 minutes, US 2004/0024099): below 0.5 microns
- mean / average particle diameter after milling with 2 mm glass beads ([3]; U.S. Pat. No. 5,360,783): 2.3 microns
- average particle size of the product ([3]; U.S. Pat. No. 5,667,795, 40% chlorothalonil, 5.6% zinc oxide, wet mill): 3 microns
- volatility [4]: 9.2 mmHg

SMILES: CC1OC(C)OC(C)OC(C)O1 (stereo not drawn) [metaldehyde]
- diameter below which 90% of the particles lie [3, 9]: less than 2.5 microns
- mean volume diameter [3, 9]: less than 1.5 microns
